Test results taken from patent US6630125B2, “18F-labeled choline analogs” (priority 2000, dated 2003).

How the values were obtained:
[1] = Stability of FCH in human whole blood; assay type: in vitro ADME; details: 2 hr, 37 C, blood of healthy human subjects (n=5)
Procedure: The stability of FCH in its prepared form was evaluated by monitoring the radiochemical purity using the HPLC system described above. […] After an incubation of 2 hr at 37 C, the plasma was separated, the plasma proteins precipitated by adding two volumes of methanol, and the supernatant was analyzed for intact FCH by cation-exchange HPLC. […] FCH was also found to be stable in a blood samples taken from healthy human subjects (n=5).

[2] = tested on: PC-3 human prostate cancer cells; assay: Accumulation of radiotracers by cultured PC-3 cells; assay type: cell-based
Procedure: The incubation media utilized for the experiments differed according to the cancer cell type (Table 1). On the day of the study, the medium was refreshed using a volume of 1 ml in each well. Cells were incubated in control conditions or with the addition of metabolic and growth factor receptor inhibitors to test the sensitivity of uptake of the radiotracers to specific inhibitions. […] Following a 30-min incubation period, the radiotracers (e.g., FDG or FCH) were added (˜2 µCi/well) and the cells were incubated for 2 hr. The cells were washed three times with phosphate buffered saline solution, released from the plates by briefly incubating with 0.05% trypsin in DMEM, transferred to test tubes, and counted for F-18 radioactivity in a gamma counter. The amount of radioactivity in the cells was normalized by the dose administered to each well.
The present work studies the structure-activity relationships for purposes of optimization of the molecule for imaging prostate cancer. […] A number of structural analogs of choline were labeled as N-[^18F]fluoromethyl derivatives via the intermediate [^18F]fluorobromomethane (see Table 3). Uptake of the radiotracers was assessed in cultured PC-3 human prostate cancer cells and in a murine PC-3 xenograft model.

[3] = tested on: PC-3 prostate cancer cells; assay: Analysis of radiolabeled metabolites in PC-3 prostate cancer cells; assay type: cell-based, human
Procedure: The primary hydrophilic metabolites of choline in mammals is phosphocholine and betaine. […] The HPLC system used a microprocessor-controlled solvent delivery system and a silica column (Adsorbosphere Silica (10μ), 250×4.6 mm, Alltech, Deerfield, Ill.). The column was kept at room temperature and the flow rate was maintained at 1.5 ml/min. […] Fractions of effluent were collected every 0.5 min and first counted for ^18F-radioactivity in a well-counter for experiments involving [^18F]FCH, then transferred to scintillation vials for counting for ^14C-radioactivity. The column was equilibrated for 6 min with Buffer A before injection. After the injection (<100 μl), Buffer A was delivered for 6 min which eluted betaine (3 min) from the column. […] Re-equilibration of the column with 100% A for 6 min preceded the next injection.
Methanol (1 ml) was added to each well and the cells were lysed by maintaining the temperature at 37° C. for 30 min. The methanol phase was transferred to a glass test tube. Each well was rinsed with an additional 0.5 ml methanol which was added to the original fraction. To each tube, 3 ml chloroform and 1 ml 0.25 M sodium phosphate (pH=4.5) were added to separate lipids from water-soluble molecules. After vigorous mixing of the samples for 1 min, the two phases were separated, and a 0.5 ml aliquot of each phase was counted for ^18F and ^14C radioactivity. The aqueous phase was further analyzed for water-soluble metabolites using the gradient-HPLC method previously described.
Cells incubated in 6-well plates for 2 hr with radiotracers were thoroughly washed to remove all extracellular radioactivity. The cells were lysed in methanol and the methanol solution added to chloroform to solubilize all lipophilic metabolites.

yeast choline kinase = target: T1, yeast choline kinase (Saccharomyces cerevisiae, UniProt P20485); assay: In vitro phosphorylation by yeast choline kinase; assay type: biochemical
T1 sequence (P20485 1-582): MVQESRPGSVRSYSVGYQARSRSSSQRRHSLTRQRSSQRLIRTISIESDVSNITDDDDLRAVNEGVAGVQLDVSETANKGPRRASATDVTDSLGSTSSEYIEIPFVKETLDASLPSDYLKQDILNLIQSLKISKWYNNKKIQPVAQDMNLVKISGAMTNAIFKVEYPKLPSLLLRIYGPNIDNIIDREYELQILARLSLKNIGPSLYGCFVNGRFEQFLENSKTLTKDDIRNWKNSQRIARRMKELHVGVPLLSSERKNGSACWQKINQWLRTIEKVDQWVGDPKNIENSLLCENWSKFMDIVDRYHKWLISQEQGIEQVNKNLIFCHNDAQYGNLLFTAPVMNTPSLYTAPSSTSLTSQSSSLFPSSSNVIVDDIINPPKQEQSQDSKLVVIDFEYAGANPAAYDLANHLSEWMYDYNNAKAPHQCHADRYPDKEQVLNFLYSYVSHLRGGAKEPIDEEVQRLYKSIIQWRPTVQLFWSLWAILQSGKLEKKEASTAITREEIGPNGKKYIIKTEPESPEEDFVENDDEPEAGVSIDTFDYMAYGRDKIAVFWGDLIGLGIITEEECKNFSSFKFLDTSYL
Procedure: The test tube was gently agitated throughout the incubation period. The reaction was stopped by placing the tube in a boiling water bath for 2 min. To serve as controls, some samples were placed directly in the boiling water bath after addition of all substrates. […] The percentage of radioactivity converted to the phosphorylated form was calculated.

C[N+](C)(CF)CCO.[Cl-] [FCH, dimethylfluoromethyl-2-hydroxyethylammonium chloride]
stability in whole blood (HPLC) [1]: completely intact | uptake in cultured PC-3 cells [2]: ~2 %/hr/100,000 cells plated | Uptake by PC-3 cancer cells, HC-3 ([2]; 5 mM hemicholinium-3): 0.18 ± 0.02 % dose/2 hr/105 cells plated | decrease in uptake by PC-3 cells with hemicholinium-3 (HC-3) ([2]; HC-3 versus control): 89% | uptake of FCH relative to HARA-1 ([2]; PC-3 prostate cancer cells): 3 fold | accumulation by cultured PC-3 cells compared with other tracers ([2]; control conditions): similarly to CH | Uptake by PC-3 cancer cells, Control ([2]; control, 2 hr incubation): 1.58 ± 0.18 % dose/2 hr/105 cells plated | Uptake by PC-3 cells ([2]; inhibitor HC-3 (hemicholinium-3, 5 mM)): 0.160 ± 0.009 % dose/2 hr/10^5 cells plated | Uptake by PC-3 cells ([2]; inhibitor none): 1.574 ± 0.033 % dose/2 hr/10^5 cells plated | ^18F-labeled species: hydrophilic metabolites, FCH ([3]; +HC-3 (5 mM hemicholinium-3)): 0.04 ± 0.01 percentage of administered dose | ^18F-labeled species: hydrophilic metabolites, P-FCH ([3]; +HC-3 (5 mM hemicholinium-3)): 0.12 ± 0.03 percentage of administered dose | ^18F-labeled species: lipophilic metabolites ([3]; +HC-3 (5 mM hemicholinium-3)): 0.01 ± 0.01 percentage of administered dose | ^18F-labeled species: hydrophilic metabolites, FCH ([3]; Control, 2 hr, 37° C.): 0.29 ± 0.05 percentage of administered dose | ^18F-labeled species: hydrophilic metabolites, P-FCH ([3]; Control, 2 hr, 37° C.): 7.1 ± 0.9 percentage of administered dose | ^18F-labeled species: lipophilic metabolites ([3]; Control, 2 hr, 37° C.): 2.4 ± 0.4 percentage of administered dose | incorporation of radioactivity into lipophilic species, FCH relative to [^14C]CH ([3]; PC-3 cells, 2 hr): 5 fold | oxidation in the cancer cells (betaine / fluorobetaine by HPLC) ([3]; PC-3 cells, 2 hr): negligible | share of cell radioactivity found as phosphorylated tracer (phosphorylfluorocholine / phosphocholine) ([3]; PC-3 cells, 2 hr): Approximately 72% | share of total cell radioactivity as lipophilic metabolites ([3]; PC-3 cells, 2 hr): 25% | phosphorylation rate compared with CH (yeast choline kinase; 1 μM choline): equivalent to CH | In vitro phosphorylation (yeast choline kinase; 1 μM choline, 25 mU/ml yeast choline kinase, 23° C., 10 min, n = 5): 62.0 ± 8.8% | IC50 (yeast choline kinase; choline 1-10,000 μM, 25 mU/ml choline kinase, 10 min, 23 C, read-out: apparent IC50 for inhibition of phosphorylation of radiotracer by choline): ~400 µM
